Source: patent US8747837B2, “Oncolytic vaccinia virus combination cancer therapy” (priority 2009, dated 2014)
“Also recorded” adds a separate entry of the source. Where two headings read alike, the source gives them in different places.

Legend:
[1] = test system: CT26 colorectal tumor cells; assay: CT26 subcutaneous colorectal tumor model; format: in vivo, Balb/c mice; settings: combination therapy, FIG. 3 legend
Description: FIG. 3. […] Kaplan-Meier survival curves are shown for each condition in the middle panel. Effects on tumor volume are shown in the lower panel.
Sorafenib enhances JX-594 activity against murine CT26 primary tumors in vivo: The combination of JX-594 and sorafenib was tested in an immunocompentent murine model of subcutaneously implanted CT26 colorectal tumor cells. Balb/c mice were injected with 3×10^5 CT26 cells subcutaneously and after 11 days, treatment commenced with Sorafenib alone (10 mg/kg p.o. daily for 2 weeks), JX594 alone (10^8 pfu IV 3 times per week for 1 week), or in combination (JX594 prior to Sorafenib, or Sorafenib prior to JX594) (n=4 per group) (FIG. 3, upper panel). Control animals received PBS only. For this experiment, a version of JX-594 was used that expresses murine GM-CSF. Tumors were measured twice weekly until endpoint. Surviving proportions of each study group at each timepoint post treatment are shown (FIG. 3, middle panel). The mean tumor volumes of each study group at each timepoint post-treatment are shown (FIG. 3, lower panel).

hepatocellular carcinoma [2] = settings: cited from earlier work; for mean tumor necrosis (MRI): sorafenib-only trial
hepatocellular carcinoma [3] = assay: Sorafenib-only local control group assessed by Choi criteria; format: in vivo, human; settings: no JX-594, 26 total, 15 assessed, both responders also had radiation therapy
Description: Example Sorafenib Only “Control Group” (Figure Included): Historically, the RECIST response rate to sorafenib alone is 1-2% (Llovet et al., 2008; Cheng et al., 2009). For a local control group assessed by Choi criteria, HCC patients that had not received JX-594, but had received sorafenib, were assessed for Choi response. In the hospital where 4 of the 5 JX-594 patients were treated, 26 other patients had received sorafenib in the same period. 7 patients died prior to response assessment, and 15 patients were assessed for Choi response. […] It should be noted that both of these patients had received radiation therapy in conjunction with sorafenib therapy.

B16-F10-LacZ cells = assay: B16 melanoma lung nodule model; format: in vivo, C57BL/6 mice; settings: combination therapy, FIG. 4 legend
Description: Sorafenib Enhances JX-594 Activity Against Murine B16 Melanoma Lung Nodules in Vivo: The combination of JX-594 and sorafenib was tested in an immunocompentent murine model of B16 melanoma tumors. C57BL/6 mice were injected with 3×10^5 B16-F10-LacZ cells IV and treated with Sorafenib alone (HD: 10 mg/kg, LD: 50 μg/kg p.o. daily for 2 weeks), JX594 alone (10^7 pfu IV 3 times per week for 1 week), or in combination (LD or HD sorafenib prior to JX-594 IV) (n=5 per group)(FIG. 4, top panel). At the end of treatment, mice were sacrificed and lungs were fixed and stained to detect B16 surface nodules (n=5 per group). The mean number of tumor nodules at the end of study is shown for each group (FIG. 4).

[4] = test system: JX-594 replication in SNU423, SNU398, SNU475, SNU449, SNU387 and U2OS; format: cell-based, vaccinia virus
hepatocellular carcinoma [5] = assay: Phase 2 trial, IV JX-594 then IT JX-594 then sorafenib in HCC; format: in vivo, human; settings: Patient JX16-HCC-03, 10 days after sorafenib initiation, after one IV and two IT doses of JX-594
Description: JX-594 Treatment Procedure, Patients Treated by IV JX-594 Followed by IT JX-594 Followed by Sorafenib: Patients with unresectable HCC received […] of JX-594 levels (10^9 pfu). For the first dose (Day 1), JX-594 was administred by intravenous infusion over 60 minutes. For the second and third doses (Day 8 and Day 22), JX-594 was administered via imaging-guided intratumoral injection using a multi-pronged Quadrafuse injection needle in roughly spherical tumors, or by a 21-gauge PEIT (percutaneous ethanol injection, multi-pore; HAKKO Medicals; Tokyo, Japan) needle in irregularly-shaped tumors. Starting on Day 25, patients imitated oral sorafenib therapy (400 mg twice daily p.o.). Patients with viable tumor tissue received a Week 12 IT injection of JX-594 (sorafenib treatment was temporarily discontinued 2-3 days before, during and 4-5 days after this booster injection). Imaging (CT, DECE MIR and/or PET-CT) was performed at baseline, Day 25, Week 6 and/or Week 12 to assess response.
Example JX16-HCC-03, IV+IT+IT+Sorafenib Patient: Patient JX16-HCC-03 had hepatocellular carcinoma and was enrolled in a Phase 2 Clinical Trial of JX-594. After completing JX-594 administration (one intravenous and two intratumoral doses) patient received sorafenib.

[6] = test system: HepG2 (human HCC line) tumors; assay: HepG2 vascularity study, CD31 vessel counts; format: in vivo, nude mice
Source text: FIG. 6 Anti-vascular effects of JX-594 followed by sorafenib. Top panels show study design of a preclinical study of JX-594 followed by Sorafenib in HepG2 xenograft model. […] Error bars are standard error.
Experimental Methods, Vascularity Study: The study followed longer term effects on vascularity and assessed the efficacy of JX-594+/−Sorafenib in the HepG2 model. HepG2 (human HCC line) tumors were implanted subcutaneously in nude mice. Animals were randomized to seven treatment groups (n=5 per group) to test agents alone, and in combination. Groups were treated with JX-594 (10^6 pfu intratumorally, D1 and D8) and/or Sorafenib (400 μg i.p., daily D15-D29) or PBS (control) on the schedule detailed in (FIG. 6). Tumors were measured using calipers twice weekly. Serum samples were collected on D1, D8, D15, D22 and D29 for measurement of VEGF and GM-CSF levels. Mice were euthanized on D22 or D35. Prior to euthanization, mice were injected with fluorescent microspheres to allow for visualization of tumor perfusion. […]
Results: Vessels were counted in CD31-stained OCT tumor sections; the average number of vessels in 3 fields of 200× magnification are presented in (FIG. 6).

[7] = test system: JX-594 replication in PLC/PRF/5 human HCC cell line; assay: JX-594 burst size / replication with sorafenib in PLC/PRF/5 cells; format: cell-based, vaccinia virus
[8] = test system: JX-594 replication in HepG2 (HCC) cells; format: cell-based, vaccinia virus
hepatocellular carcinoma [9] = assay: Sorafenib therapy following JX-594 in HCC patients (DCE-MRI, Choi); format: in vivo, human
Description: Sorafenib Therapy and Tumor Response Assessment Following JX-594: Patients completed the IT clinical trial of JX-594 after 8 weeks on study. Some patients (Patients 1702, 1705, 1002, 1712, 1713) went on to receive standard sorafenib treatment (400 mg twice daily p.o.). Tumors in these patients were followed by DCE-MRI imaging using the same procedures that were used to assess response to JX-594 treatment.
Tumor Vascularity and Response Assessment: DCE MRI (dynamic contrast-enhanced magnetic resonance imaging) was performed at screening (baseline), on Day 5 (optional) and Week 8. For patients going on to Sorafenib, DCE MRI was performed 4 and/or 8 weeks after the start of Sorafenib treatment. DCE MRI assesses tumor size, vascularity and necrosis. The screening/baseline DCE MRI was used as the reference from which to determine time to progression and response rates. […] Tumor progression status and tumor response(s) to JX-594 were assessed radiologically by modified RECIST and modified Choi criteria at the Week 8 visit. Independent review of the images was made by radiologist(s) with expertise in evaluating hepatocellular carcinoma on MRI scans. For evaluation of the intra-hepatic tumors, the proportion of subjects with an objective “complete” or “partial” anti-tumor response was determined based on modified RECIST, and a response as measured by Modified Choi criteria (defined as a ≧10% decrease in the sum of the longest diameter and/or ≧15% decrease in the average tumor signal intensity at MRI).
Tumor Response by Modified Choi Criteria: The Choi response criteria takes into consideration changes in tumor density in addition to tumor diameter (versus RECIST) and data supporting its utility has been published (Choi et al. 2004). Early studies have shown that liver tumors treated with JX-594 can develop significant internal necrosis without a concomitant decrease in size, as has been described in gastrointestinal stromal tumors by Choi et al. (2004). Therefore, intra-hepatic tumors were also measured and response evaluated using a Modified Choi Criteria. The modification of the criteria is necessary as DCE MRI was the imaging modality employed for measuring tumor response. […] The screening/baseline DCE MRI was used as the reference from which to determine response. A response by Modified Choi criteria was defined as a ≧10% decrease in the sum of the longest diameter of the injected tumor(s) and/or ≧15% decrease in the average injected tumor signal intensity on MRI. The average MRI signal intensity (SI) was measured as a percentage of tumor.

[10] = test system: JX-594 replication in A2780 (ovarian) cells; format: cell-based, vaccinia virus
murine HCC model = format: in vivo

## CNC(=O)c1cc(Oc2ccc(NC(=O)Nc3ccc(Cl)c(C(F)(F)F)c3)cc2)ccn1 [Sorafenib]
[1]
  JX-594 efficacy against CT26 subcutaneous solid tumors: enhances JX-594 efficacy
Hepatocellular carcinoma [2]; sorafenib alone, historical (Llovet et al., 2008; Cheng et al., 2009)
  RECIST response rate: 1-2%
Hepatocellular carcinoma [2]; after several courses of treatment (Abou-Alfa et al., 2006)
  mean tumor necrosis (MRI): 27%
Hepatocellular carcinoma [2]; at baseline (Abou-Alfa et al., 2006)
  mean tumor necrosis (MRI): 9.8%
Hepatocellular carcinoma [3]
  patients with a Choi+ response: 2 patients
B16-F10-LacZ cells
  JX-594 efficacy in murine B16 metastatic melanoma model: enhances JX-594 efficacy
[4]
  JX-594 replication: inhibited JX-594 replication
Hepatocellular carcinoma [5]
  DCE-MRI perfusion of non-injected extrahepatic tumor: loss of perfusion
[6]; Sorafenib alone 400 μg i.p. daily D15-D29, Day 29
  number of vessels in CD31-stained tumor sections: transient decrease in the number of vessels
[6]; Sorafenib alone, Day 35
  number of vessels in CD31-stained tumor sections: vessel counts increase again
[7]; 10 μM sorafenib, various MOI, 24 hours infection, plaque assay on Vero cells
  JX-594 replication: inhibited
[7]; Sorafenib 10 μM added 2 hrs prior to, during or 2 hrs after JX-594 infection, PLC/PRF/5
  burst size decreased: up to 100 fold
[8]
  JX-594 plaque formation and replication (burst): can inhibit viral growth and replication; also recorded: Inhibits JX-594 Plaque Formation and Replication
Hepatocellular carcinoma [9]; Patient 1702, after three IT doses JX-594, 4 and 8 weeks of Sorafenib (200 mg twice daily p.o.)
  DCE MRI finding after initiation of Sorafenib: acute tumor necrosis
Hepatocellular carcinoma [9]; Patient 1705, after JX-594, 4 weeks of Sorafenib 400 mg twice daily p.o.
  DCE MRI finding after initiation of Sorafenib: acute tumor necrosis
Hepatocellular carcinoma [9]; Patient 1712, after JX-594, 4 weeks of Sorafenib 400 mg twice daily p.o.
  DCE-MRI finding after initiation of Sorafenib: acute tumor necrosis
Hepatocellular carcinoma [9]; sorafenib after the Week 8 assessment, patients pre-treated with JX-594
  tumor necrosis and vascular shutdown with adjuvant sorafenib: dramatic and durable tumor necrosis and vascular shutdown in two patients; also recorded: dramatic and durable tumor necrosis and vascular shutdown in at least three patients
[10]
  JX-594 plaque formation and replication (burst): can inhibit viral growth and replication; also recorded: Inhibits JX-594 Plaque Formation and Replication
Murine HCC model; adjuvant sorafenib after JX-594
  angiogenesis: inhibited angiogenesis
Murine HCC model; adjuvant sorafenib after JX-594, versus either agent alone
  anti-tumoral efficacy: significantly improved anti-tumoral efficacy over either agent alone
